# Assay results taken from article PMC6287599, “2,6-Bis(2-Benzimidazolyl)Pyridine (BBP) Is a Potent and Selective Inhibitor of Small Conductance Calcium-Activated Potassium (SK) Channels” (Frontiers in Pharmacology, 2018).
# “And” between values parts separate entries of the source, which are not always exact repeats. Equal entries are not always repeated. “Also recorded” adds a separate entry of the source.
# Assays:
# [1] = system: all three SK channel subtypes; assay: Automated patch clamp, summary over all three SK channel subtypes; format: cell-based, human; conditions: summary value, read-out: IC50 on all three SK channel subtypes (similar potency)
# Experimental: Three different stable HEK293 cell lines expressing hSK1, hSK2 or hSK3 (NeuroSearch A/S, Ballerup, Denmark) and a CHO stable cell line expressing hERG (University of Copenhagen, Copenhagen, Denmark) were used for automated patch clamp. These cells were cultivated and prepared as previously described (Skarsfeldt et al., [2016]).
# Automated patch clamp (QPatch 16, Sophion, Denmark) on SK-expressing HEK293 cell lines was conducted as previously described (Simó-Vicens et al., [2017b]). Briefly, SK currents were elicited by voltage-ramps starting at −80 mV and finishing at +80 mV from a holding potential of 0 mV. Extracellular solution contained 0.1 mM CaCl2, 3 mM MgCl2, 154 mM KCl, 10 mM HEPES and 10 mM glucose with pH 7.4. Intracellular solution for SK experiments contained 8.106 mM CaCl2 (final free calcium concentration of 400 nM), 1.167 mM MgCl2, 10 mM EGTA, 154 mM KCl, 10 mM HEPES, 31.25/ 10 mM KOH/EGTA and 15 mM KOH with pH 7.2. Automated patch clamp on hERG-expressing CHO cell line was performed also as previously described (Skarsfeldt et al., [2016]).
# Where Y is the normalized response, from 100, corresponding to current recorded during saline perfusion, down to 0, corresponding to currents recorded in the presence of bicuculline methiodide 100 μM. X is the log of the BBP concentration. A standard Hill Slope of −1 was considered for this purpose. […]
# Kir2.1 = molecular target: T1, Kir2.1 (Homo sapiens, UniProt P63252); assay: Two-electrode voltage clamp in Xenopus laevis oocytes, Kir2.1; format: cell-based; conditions: BBP 10 μM, TEVC, n = 5
# T1 sequence (P63252 1-427): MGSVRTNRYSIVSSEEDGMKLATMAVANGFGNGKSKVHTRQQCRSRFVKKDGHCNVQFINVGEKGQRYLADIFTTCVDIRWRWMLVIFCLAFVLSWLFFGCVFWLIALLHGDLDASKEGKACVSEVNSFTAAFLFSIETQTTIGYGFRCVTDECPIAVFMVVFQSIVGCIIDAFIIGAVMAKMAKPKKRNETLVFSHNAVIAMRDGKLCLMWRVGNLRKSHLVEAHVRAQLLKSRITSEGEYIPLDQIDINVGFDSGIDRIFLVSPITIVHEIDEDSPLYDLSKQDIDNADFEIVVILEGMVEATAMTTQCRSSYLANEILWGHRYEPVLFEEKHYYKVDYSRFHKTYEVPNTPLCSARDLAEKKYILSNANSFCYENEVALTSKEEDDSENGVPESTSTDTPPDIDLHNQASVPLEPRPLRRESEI
# Experimental: cRNA was prepared from linearized plasmids using the mMESSAGE mMACHINE T7 kit (Ambion, USA) and quantified by UV spectroscopy (NanoDrop, Thermo Scientific, Wilmington, USA). Xenopus laevis oocytes were acquired from EcoCyte Bioscience (Castrop-Rauxel, Germany). Oocytes were injected with 50 nL cRNA and currents were recorded after 2 days of incubation at 19°C. Currents were recorded at a sampling rate of 10 kHz using a TEVC amplifier (Dagan CA-1B; IL, USA), and borosilicate glass recording electrodes (Module Ohm, Herlev, Denmark), made with a DMZ Universal Puller (Zeitz Instruments, Martinsried, Germany) with a resistance of 0.5–1 MΩ when filled with 2 M KCl. Oocytes were superfused with Kulori (pH 7.4) solution containing NaCl 90 mM, KCl 4 mM, MgCl2 1 mM, CaCl2 1 mM, 4-(2-hydroxyethyl)-1-piperazineethanesulfonic acid 5 mM, and currents were elicited with the voltage protocols previously indicated (Skarsfeldt et al., [2016]), from a holding potential of −80 mV. […]
# To assess the effect of BBP on other calcium-activated potassium channels (hBK, hSK3 WT, rSK3 H491N, and hIK), each individual current was first normalized to its cell size using membrane's capacitance (pA/pF) before statistical analysis. […] Statistical significance between saline and the effect of both BBP and the corresponding reference compound was determined for each channel using one-way ANOVA analysis. […]
smiles,measurement,setting,value
"c1cc(-c2nc3ccccc3[nH]2)nc(-c2nc3ccccc3[nH]2)c1 [BBP, 2,6-Bis(2-benzimidazolyl)pyridine]",IC50,[1],400 nM and ~400 nM
same,Effect on Kir2.1 current,Kir2.1,did not have any effect; also recorded: did not significantly affect
